According to patent publication US20260276656A1, “GUT MICROBIOTA-RELATED METHODS FOR TREATING DEMENTIA AND AGE-DEPENDENT COGNITIVE DECLINE” (Albert-Ludwigs-Universitat Freiburg, priority 2019, published 2026):

Assays:
Format in all cases: in vivo, mouse
[1] = system: C57BL/6J mice; experiment: T-maze spontaneous alternation test (spatial working memory); conditions: old mice and old mice subjected to FMT from young donors; PLX5622 chow versus respective control mice; FIG. 15B
Protocol: (§1) In order to acutely deplete the gut microbiota, 15-16 months old SPF males were treated via oral gavage with a mixture of antibiotics (ABX), containing Cefoxitin (Santa Cruz Biotechnology), Gentamicin (Sigma-Aldrich) Metronidazole (Sigma-Aldrich), and Vancomycin (Hikma-pharma), each 10 mg/kg in sterile 1×PBS, for three consecutive days. On the fourth day, the mice were treated with one dose of Clindamycin hydrochloride (33.3 mg/kg) (Sigma-Aldrich). Fecal microbiota transplantations (FMTs) were started 24 h later. To deplete csf1-dependent cells in vivo, including microglia, mice were provided with CSF1R-inhibitor PLX5622 (Plexxicon Inc.) mixed into AIN-76A standard chow at 1200 mg/kg (Research Diets Inc.) ad libitum. Respective controls received AIN-76A standard chow. Mice were injected with 5 mg/kg δ-valerobetaine (MCAT, Germany) 1 h before behavioral testing.
(§2) For microbiota depletion studies, SPF mice were treated with 1 mg/ml of ampicillin (Auromedics), neomycin sulfate (Fisher), streptomycin (Sigma) and 0.5 mg/ml of vancomycin (Sagent) in the drinking water for 4-5 weeks (Khosravi et al., 2014). These mice were recolonized via FMT, which was achieved by oral gavage of a faecal slurry. Recipient mice had the food removed from the cage for 2 h prior to FMT. The faecal slurry was obtained by pooling faecal pellets from 8-14 donor mice. The pellets were weighed and resuspended by vortexing for 1 min in 1 mL PBS per 300 mg of faeces. After pelleting larger particles by centrifugation at 500×g for 5 min, the supernatant was collected for FMT. Each recipient mouse received 150 μl of faecal slurry by oral gavage. The remaining slurry was stored at −80° C. for 16S rRNA sequencing. Following FMT, the cages of recipient mice were replenished with dirty bedding and fresh faecal pellets from donor mice once and twice a week, respectively. Faecal pellets for 16S rRNA sequencing were collected the day before FMT and at the end of the experiment and were stored at −80° C. for DNA extraction. For re-colonization of ABX treated mice, FMTs from 8 weeks old or 15-16 months old males were undergone. Fresh fecal pellets are collected under a sterile hood and directly thoroughly homogenized in 0.1% L-Cysteine hydrochloride monohydrate in 1×PBS in order to maintain anaerobic microbes. The homogenates were spun down for 1 min, 200 g at 4° C. and the turbid supernatant was used to orally and rectally gavage the recipient mice. The FMT was performed twice 72 h apart.
(§3) NNN-trimethyl-5-aminovalerate was dissolved in 0.9% NaCl and administered i.p. at a dose of 200 mg/kg in a volume of 10 ml/kg. As control the vehicle NaCl was injected.
(§4) Mice were tested 40 min after drug- or vehicle injection or 4 weeks after FMT. We first performed the training run for the Novel-object recognition test, followed by the T maze test and then 6 h after the training session mice were tested in the Novel object recognition test. Spatial working memory was tested using the continuous spontaneous alternation task in a T-maze as described previously (Spowart-Manning, L. et al). Briefly, animals were set into the base of a T-maze and allowed to explore a randomly assigned T-maze arm until it returned to the base arm. Subsequently, the blocked arm was opened, and the animal was allowed to explore the complete maze. Once one arm of the T-maze was entered, the other arm was blocked until the animal returned to the base arm. Then, the exit of the base arm was blocked for 5 s and the animal was allowed to explore the maze again. The experiment was stopped after 14 free choice arm entries. Arm entries were scored as alternations if an animal chose the opposing arm compared to the arm visited immediately prior to the scored instance. The Novel Object Recognition (NOR) task was applied to evaluate recognition memory as published previously (Antunes, M. & Biala, G. et al). During the habituation phase, each mouse was allowed to explore two similar objects within a total exploration time of 20 s. […]

[2] = system: C57BL/6J mice; experiment: Novel object recognition (NOR) test (recognition memory); conditions: old mice and old mice subjected to FMT from young donors; PLX5622 chow versus respective control mice; FIG. 15C-D
Protocol: as §1, §2, §3, §4

[3] = system: microglia; experiment: Microglia depletion verified by Iba-1 immunohistochemistry; conditions: 1200 mg/kg in AIN-76A chow ad libitum; cortex and hippocampus; FIG. 15E-F
Protocol: as §1
Mice were lethally anesthetized with ketamine (100 mg/kg bodyweight) and xylazine (10 mg/kg body weight) followed by perfusion with 1×PBS through the left heart chamber. For histology, the brains were kept overnight in 4% PFA. The brains were then dehydrated in 30% sucrose and embedded in Tissue-Tek O.C.T.™ compound (Sakura Finetek Germany GmbH). […] Fluorescence imaging was performed with BZ-9000 Biorevo microscope (Keyence). Iba-1+DAPI+ cells were quantified using ImageJ (v. 1.53c).

COc1ncc(F)cc1CNc1ccc(Cc2c[nH]c3ncc(C)cc23)c(F)n1 [PLX5622, reference compound]
T maze performance of mice lacking microglia [1]: unchanged | NOR performance of mice lacking microglia [2]: unchanged | microglia in brain tissue (Iba-1 immunohistochemistry) [3]: almost complete absence
